5 compounds from ChEMBL document CHEMBL1949599, “Three novel cyclic hexapeptides from Streptomyces alboflavus 313 and their antibacterial activity” (2012) can be followed below.

Structures are written as SMILES. Values after ≈ are worked out from the molar mass of the structure shown. Some results are limits rather than exact numbers.

Common to all, as to assay type: functional
In assay [1] the test system is Bacillus cereus. In words: Antibacterial activity against Bacillus cereus CGMCC 1.1846 after 24 hrs by micro-broth dilution method. Conditions: CGMCC 1.1846, 24 h. For orientation: In broth dilution the organism is exposed to a series of concentrations in liquid medium.
The subject of assay [2] is Staphylococcus aureus. The experiment in a line: Antibacterial activity against Staphylococcus aureus CGMCC 1.89 after 24 hrs by micro-broth dilution method. Conditions: CGMCC 1.89, 24 h.
Assay [3] concerns Bacillus subtilis. The experiment in a line: Antibacterial activity against Bacillus subtilis CGMCC 1.88 after 24 hrs by micro-broth dilution method. Conditions: CGMCC 1.88, 24 h.
Assay [4] concerns Escherichia coli. In words: Antibacterial activity against Escherichia coli CGMCC 1.1574 after 24 hrs by micro-broth dilution method. Conditions: CGMCC 1.1574, 24 h.
Assay [5] concerns Staphylococcus aureus. In words: Antibacterial activity against methicillin-resistant Staphylococcus aureus after 24 hrs by micro-broth dilution method.
Assay [6] relates to Pseudomonas aeruginosa. The experiment in a line: Antibacterial activity against Pseudomonas aeruginosa CGMCC 1.2031 after 24 hrs by micro-broth dilution method. Conditions: CGMCC 1.2031, 24 h.

For orientation: MIC means the lowest concentration that inhibits growth of the organism. A high value points to a less susceptible organism. As to `CC(C)[C@@H]1NC(=O)[C@@H]2C[C@@]3(O)c4ccc(Cl)cc4N[C@H]3N2C(=O)[C@H]2CCCNN2C(=O)[C@@H](C)N(C)C(=O)[C@H]2CCCNN2C(=O)[C@@H]2CCCNN2C1=O`, the MIC in assay [1] was 12.5 µg/mL (≈ 16.5 µM); in assay [2], 6.25 µg/mL (≈ 8.25 µM); in assay [3], 12.5 µg/mL (≈ 16.5 µM); in assay [4], above 100 µg/mL; in assay [5] it was 6.25 µg/mL (≈ 8.25 µM); in assay [6], above 100 µg/mL.
Take `CC(C)[C@H]1NC(=O)[C@@H]2C[C@@]3(O)c4ccc(Cl)cc4N[C@H]3N2C(=O)[C@H]2CCCNN2C(=O)[C@@H](C)NC(=O)[C@H]2CCCNN2C(=O)[C@@H]2CCCNN2C1=O`: the MIC in assay [1], in assay [2], in assay [3], in assay [4], in assay [5] and in assay [6] was above 100 µg/mL each time.
For the compound `COC1=CC2C(=O)N(C)[C@@H](C)C(=O)N3NCCC[C@@H]3C(=O)N3[C@@H](C[C@@]4(O)c5ccc(Cl)cc5N[C@@H]34)C(=O)N[C@H](C(C)C)C(=O)N3NCCC[C@@H]3C(=O)N2N=C1` (stereo not given in full), the MIC in assay [1] was 3.13 µg/mL (≈ 4 µM); in assay [2], 1.56 µg/mL (≈ 1.99 µM); in assay [3], 3.13 µg/mL (≈ 4 µM); in assay [4], above 100 µg/mL; in assay [5], 1.56 µg/mL (≈ 1.99 µM); in assay [6], above 100 µg/mL.
For `COC1C=NN2C(=O)[C@H]3CCCNN3C(=O)[C@@H](C(C)C)NC(=O)[C@@H]3C[C@@]4(O)c5ccc(Cl)cc5N[C@H]4N3C(=O)[C@H]3CCCNN3C(=O)[C@H](C)N(C)C(=O)C2C1` (stereo not given in full), the MIC in assay [1] was 25 µg/mL (≈ 31.8 µM); in assay [2], 25 µg/mL (≈ 31.8 µM); in assay [3], 25 µg/mL (≈ 31.8 µM); in assay [4] it was above 100 µg/mL; in assay [5] it was 25 µg/mL (≈ 31.8 µM); in assay [6], above 100 µg/mL.
In the case of `CC1(C)S[C@@H]2[C@H](NC(=O)[C@H](N)c3ccccc3)C(=O)N2[C@H]1C(=O)[O-].[Na+]` [AMPICILLIN SODIUM], the MIC is 6.25 µg/mL in assay [1]; 6.25 µg/mL in assay [2]; 1.56 µg/mL in assay [3]; 3.13 µg/mL in assay [4]; above 100 µg/mL in assay [5]; above 100 µg/mL in assay [6].
